Assay results from patent US8003660B2, “Modulators of muscarinic receptors” (Vertex Pharmaceuticals Incorporated, priority 2006, dated 2011).

Experiments:
Format in all cases: cell-based
M3 muscarinic receptor = molecular target: T1, M3 muscarinic receptor (Homo sapiens, UniProt P20309); assay: Functional mobilization of intracellular calcium (FLIPR) in CHO cells expressing M3; details: for EC50: CHO cells expressing M3, FLIPR calcium; for Emax: CHO, 100% = maximum response obtained with the Carbachol control, read-out: M3 Efficacy
T1 construct: expressed in transfected cells; host or cells: CHO (M3-CHO)
T1 sequence (P20309 whole entry): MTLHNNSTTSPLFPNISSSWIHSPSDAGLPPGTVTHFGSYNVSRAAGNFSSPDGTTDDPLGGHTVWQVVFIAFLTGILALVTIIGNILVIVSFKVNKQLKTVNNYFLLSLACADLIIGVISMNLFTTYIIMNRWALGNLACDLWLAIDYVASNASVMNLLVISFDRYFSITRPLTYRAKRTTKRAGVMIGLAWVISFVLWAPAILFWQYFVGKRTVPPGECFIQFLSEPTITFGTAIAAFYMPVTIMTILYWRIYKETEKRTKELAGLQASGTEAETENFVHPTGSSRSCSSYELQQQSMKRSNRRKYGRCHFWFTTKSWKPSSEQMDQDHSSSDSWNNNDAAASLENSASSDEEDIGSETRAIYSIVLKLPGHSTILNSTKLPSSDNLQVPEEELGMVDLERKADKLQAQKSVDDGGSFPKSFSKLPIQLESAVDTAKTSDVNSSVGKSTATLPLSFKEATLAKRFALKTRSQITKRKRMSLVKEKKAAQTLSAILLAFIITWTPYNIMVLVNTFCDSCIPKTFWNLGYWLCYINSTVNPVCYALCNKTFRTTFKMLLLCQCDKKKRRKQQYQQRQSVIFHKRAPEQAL
Procedure, shortened: (§1)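 Calcium flux is read on FLIPR over 60 sec at 488/540 nm in muscarinic-receptor CHO lines. Antagonist mode adds carbachol at EC80 after 15 min compound preincubation or with simultaneous co-application. Agonist mode adds compound alone. Cells carry Fluo-3 or Calcium 3 dye in probenecid-containing pH 7.4 buffer, 0.5% DMSO final.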

M2 muscarinic receptor = molecular target: T2, M2 muscarinic receptor (Homo sapiens, UniProt P08172); assay: Functional mobilization of intracellular calcium (FLIPR) in CHO cells expressing M2; details: for EC50: CHO cells expressing M2, FLIPR calcium; for Emax: CHO, 100% = maximum response obtained with the Carbachol control, read-out: M2 Efficacy
T2 construct: expressed in transfected cells; host or cells: CHO (M2-CHO)
T2 sequence (P08172 1-466): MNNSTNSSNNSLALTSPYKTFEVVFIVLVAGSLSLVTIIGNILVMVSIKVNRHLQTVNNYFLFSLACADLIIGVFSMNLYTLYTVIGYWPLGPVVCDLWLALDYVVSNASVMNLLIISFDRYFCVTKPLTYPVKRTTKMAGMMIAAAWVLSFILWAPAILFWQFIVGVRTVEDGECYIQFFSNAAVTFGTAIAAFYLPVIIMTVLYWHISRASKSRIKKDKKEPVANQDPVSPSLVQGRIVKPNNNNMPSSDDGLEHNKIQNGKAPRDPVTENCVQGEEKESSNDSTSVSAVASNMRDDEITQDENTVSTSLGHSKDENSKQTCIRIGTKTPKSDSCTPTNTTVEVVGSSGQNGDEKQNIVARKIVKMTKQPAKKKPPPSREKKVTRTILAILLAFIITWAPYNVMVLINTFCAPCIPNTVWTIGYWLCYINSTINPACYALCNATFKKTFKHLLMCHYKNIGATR
Procedure, shortened: as §1

M4 muscarinic receptor = molecular target: T3, M4 muscarinic receptor (Homo sapiens, UniProt P08173); assay: Functional mobilization of intracellular calcium (FLIPR) in CHO cells expressing M4; details: for EC50: CHO cells expressing M4, FLIPR calcium; for Emax: CHO, 100% = maximum response obtained with the Carbachol control, read-out: M4 Efficacy
T3 construct: expressed in transfected cells; host or cells: CHO (M4-CHO)
T3 sequence (P08173 1-479): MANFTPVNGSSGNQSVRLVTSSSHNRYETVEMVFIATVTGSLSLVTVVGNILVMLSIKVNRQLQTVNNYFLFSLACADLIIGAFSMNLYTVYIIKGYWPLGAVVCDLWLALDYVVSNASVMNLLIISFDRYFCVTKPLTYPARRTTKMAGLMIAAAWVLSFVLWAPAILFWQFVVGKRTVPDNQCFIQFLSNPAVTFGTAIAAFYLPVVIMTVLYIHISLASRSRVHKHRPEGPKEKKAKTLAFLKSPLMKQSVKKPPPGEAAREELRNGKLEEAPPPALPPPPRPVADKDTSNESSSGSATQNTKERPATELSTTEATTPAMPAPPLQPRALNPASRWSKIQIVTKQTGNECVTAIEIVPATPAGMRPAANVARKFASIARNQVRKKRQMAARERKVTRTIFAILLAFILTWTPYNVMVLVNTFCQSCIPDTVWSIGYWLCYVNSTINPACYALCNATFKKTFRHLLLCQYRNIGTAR
Procedure, shortened: as §1

M1 muscarinic receptor = molecular target: T4, M1 muscarinic receptor (Homo sapiens, UniProt P11229); assay: Functional mobilization of intracellular calcium (FLIPR) in CHO cells expressing M1; details: for EC50: CHO cells expressing M1, FLIPR calcium; for Emax: CHO, 100% = maximum response obtained with the Carbachol control, read-out: M1 Efficacy
T4 construct: expressed in transfected cells; host or cells: CHO (M1-CHO)
T4 sequence (P11229 1-460): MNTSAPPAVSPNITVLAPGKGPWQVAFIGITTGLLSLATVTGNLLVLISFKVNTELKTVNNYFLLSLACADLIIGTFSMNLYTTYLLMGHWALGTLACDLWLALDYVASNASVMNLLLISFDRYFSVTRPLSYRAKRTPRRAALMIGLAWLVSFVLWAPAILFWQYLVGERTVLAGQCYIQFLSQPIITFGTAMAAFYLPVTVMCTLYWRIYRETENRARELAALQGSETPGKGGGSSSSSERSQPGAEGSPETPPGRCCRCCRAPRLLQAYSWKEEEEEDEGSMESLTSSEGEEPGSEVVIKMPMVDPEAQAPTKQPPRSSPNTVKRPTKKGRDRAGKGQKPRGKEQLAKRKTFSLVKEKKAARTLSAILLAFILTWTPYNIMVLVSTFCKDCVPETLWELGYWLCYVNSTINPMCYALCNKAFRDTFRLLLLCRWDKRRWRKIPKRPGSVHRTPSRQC
Procedure, shortened: as §1

Compound	EC50 (M3 muscarinic receptor)	Emax (M3 muscarinic receptor)	EC50 (M2 muscarinic receptor)	Emax (M2 muscarinic receptor)	EC50 (M4 muscarinic receptor)	Emax (M4 muscarinic receptor)	EC50 (M1 muscarinic receptor)	Emax (M1 muscarinic receptor)
CC(=O)N1CCC[C@@H]1C(=O)N[C@@H]1CCC2(CCN(CCC(C)(C)C)CC2)c2ccccc21 [compound 107]	> 5 µM	< 25%	2 to 5 µM	< 25%	< 2000 nM	25 to 100%	2000 to 5000 nM	25 to 100%
CC(C)(C)CCN1CCC2(CC[C@H](NC(=O)c3cccnc3)c3ccccc32)CC1 [compound 108]	> 5 µM	< 25%	< 2 µM	< 25%	< 2000 nM	25 to 100%	< 2000 nM	25 to 100%
C[C@H](C(=O)N[C@H]1CCC2(CCN(CCC(C)(C)C)CC2)c2ccccc21)N1CCCC1=O [compound 109]	> 5 µM	< 25%	> 5 µM	< 25%	< 2000 nM	25 to 100%	< 2000 nM	25 to 100%
CCN(C(=O)CCC(F)(F)F)[C@H]1CCC2(CCN(CCC(C)(C)C)CC2)c2ccccc21 [compound 110]	> 5 µM	< 25%	> 5 µM	< 25%	< 2000 nM	25 to 100%	> 5000 nM	25 to 100%
CCN(C(=O)c1cccnc1)[C@@H]1CCC2(CCN(CCC(C)(C)C)CC2)c2ccccc21 [compound 111]	> 5 µM	< 25%	> 5 µM	< 25%	< 2000 nM	25 to 100%	> 5000 nM	< 25%
C[C@H](C(=O)N[C@@H]1CCC2(CCN(CCC(C)(C)C)CC2)c2ccccc21)N1CCCCC1=O [compound 113]	> 5 µM	< 25%	> 5 µM	< 25%	< 2000 nM	25 to 100%	> 5000 nM	< 25%
CCn1cc(C(=O)N[C@H]2CCC3(CCN(CCC(C)(C)C)CC3)c3ccccc32)cn1 [compound 115]	> 5 µM	< 25%	< 2 µM	25 to 100%	< 2000 nM	25 to 100%	< 2000 nM	25 to 100%
CCN(C(=O)[C@@H](C)OC)[C@H]1CCC2(CCN(CCC(C)(C)C)CC2)c2ccccc21 [compound 116]	> 5 µM	< 25%	> 5 µM	< 25%	< 2000 nM	25 to 100%	> 5000 nM	25 to 100%
CC(C)(C)CCN1CCC2(CC1)CC(F)(F)C(=O)c1ccccc12 [compound 117]	> 5 µM	< 25%	< 2 µM	25 to 100%	< 2000 nM	25 to 100%	< 2000 nM	25 to 100%
Cn1cncc1C(=O)N[C@@H]1CCC2(CCN(CCC(C)(C)C)CC2)c2ccccc21 [compound 118]	> 5 µM	< 25%	> 5 µM	< 25%	< 2000 nM	25 to 100%	2000 to 5000 nM	25 to 100%
CC(C)(C)CCN1CCC2(CC[C@H](NC(=O)C3CC3)c3ccc(F)cc32)CC1 [compound 119]	> 5 µM	< 25%	< 2 µM	25 to 100%	< 2000 nM	25 to 100%	< 2000 nM	25 to 100%
CC(C)(C)CCN1CCC2(CC1)CC(F)(F)C(O)c1ccccc12 (centres unmarked) [compound 120]	> 5 µM	< 25%	< 2 µM	25 to 100%	< 2000 nM	25 to 100%	< 2000 nM	25 to 100%
CC(=O)N1CCCC(C(=O)N[C@H]2CCC3(CCN(CCC(C)(C)C)CC3)c3ccccc32)C1 (some centres unmarked) [compound 121]	> 5 µM	< 25%	> 5 µM	< 25%	< 2000 nM	25 to 100%	< 2000 nM	25 to 100%
CC(=O)N(C1CC1)C1CCC2(CCN(CCC(C)(C)C)CC2)c2ccccc21 (centres unmarked) [compound 122]	> 5 µM	< 25%	> 5 µM	< 25%	< 2000 nM	25 to 100%	< 2000 nM	25 to 100%
CC(=O)N(C)[C@H]1CCC2(CCN(CCC(C)(C)C)CC2)c2ccccc21 [compound 123]	> 5 µM	< 25%	> 5 µM	< 25%	< 2000 nM	25 to 100%	< 2000 nM	25 to 100%
CC(C)(C)CCN1CCC2(CC[C@H](NC(=O)CCN3CCCC3=O)c3ccccc32)CC1 [compound 124]	> 5 µM	< 25%	< 2 µM	25 to 100%	< 2000 nM	25 to 100%	< 2000 nM	25 to 100%
CC(C)CCN1CCC2(CC[C@H](NC(=O)C3CC3)c3ccccc32)CC1 [compound 125]	> 5 µM	< 25%	2 to 5 µM	< 25%	< 2000 nM	25 to 100%	< 2000 nM	25 to 100%
CC(C)[C@@H](C(=O)N[C@@H]1CCC2(CCN(CCC(C)(C)C)CC2)c2ccccc21)N1CCCC1=O [compound 126]	> 5 µM	< 25%	> 5 µM	< 25%	< 2000 nM	25 to 100%	> 5000 nM	< 25%
CCN(C(=O)CCC(=O)NC)[C@H]1CCC2(CCN(CCC(C)(C)C)CC2)c2ccccc21 [compound 127]	> 5 µM	< 25%	2 to 5 µM	< 25%	< 2000 nM	25 to 100%	< 2000 nM	25 to 100%
CCN(C(=O)c1cncn1C)[C@H]1CCC2(CCN(CCC(C)(C)C)CC2)c2ccccc21 [compound 128]	> 5 µM	< 25%	> 5 µM	< 25%	< 2000 nM	25 to 100%	2000 to 5000 nM	25 to 100%
Cn1cc(C(=O)N[C@@H]2CCC3(CCN(CCC(C)(C)C)CC3)c3ccccc32)cn1 [compound 129]	> 5 µM	< 25%	> 5 µM	< 25%	< 2000 nM	25 to 100%	> 5000 nM	< 25%
CC(=O)N1CCC(C(=O)N(C)[C@H]2CCC3(CCN(CCC(C)(C)C)CC3)c3ccccc32)CC1 [compound 132]	> 5 µM	< 25%	> 5 µM	< 25%	< 2000 nM	25 to 100%	2000 to 5000 nM	25 to 100%
